In ChEMBL document CHEMBL3763146 (J Med Chem, 2016):
Values belong to the compound of their own block, whether it stands above or below them.

Experiments:
[1] = target: T1, Beta-3 adrenergic receptor (Homo sapiens, UniProt P13945); assay: Agonist activity at human beta3 adrenergic receptor expressed in CHO cells assessed as accumulation of cAMP after 30 mins by TR-FRET assay; assay type: functional, cell-based
Target sequence in this assay (P13945 whole entry): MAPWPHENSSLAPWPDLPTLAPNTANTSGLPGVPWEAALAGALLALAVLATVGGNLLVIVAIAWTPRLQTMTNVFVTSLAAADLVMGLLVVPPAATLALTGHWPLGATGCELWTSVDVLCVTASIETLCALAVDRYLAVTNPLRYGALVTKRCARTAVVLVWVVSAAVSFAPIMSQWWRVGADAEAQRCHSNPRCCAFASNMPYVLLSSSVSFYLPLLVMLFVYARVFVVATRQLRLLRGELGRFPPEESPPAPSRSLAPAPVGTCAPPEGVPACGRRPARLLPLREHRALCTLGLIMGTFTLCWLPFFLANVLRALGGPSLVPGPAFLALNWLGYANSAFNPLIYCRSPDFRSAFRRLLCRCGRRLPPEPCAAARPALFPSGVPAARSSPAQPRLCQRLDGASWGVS

[2] = target: Voltage-gated inwardly rectifying potassium channel KCNH2 (Homo sapiens, UniProt Q12809); assay: Binding affinity to human ERG channel
[3] = Induction of phospholidosis in human HepG2 cells incubated overnight by […] in presence of fluorescent labeled phospholipid probe NBD-PE; assay type: cell-based; settings: read-out: A50
[4] = target: Sodium channel protein type 2 subunit alpha (Homo sapiens, UniProt Q99250); assay: Inhibition of human Nav1.2 channel expressed in Xenopus oocytes by two-intracellular microelectrode voltage clamp method; assay type: cell-based
[5] = target: Beta-1 adrenergic receptor (Homo sapiens, UniProt P08588)
Beta-1 adrenergic receptor, sequence (P08588 whole entry): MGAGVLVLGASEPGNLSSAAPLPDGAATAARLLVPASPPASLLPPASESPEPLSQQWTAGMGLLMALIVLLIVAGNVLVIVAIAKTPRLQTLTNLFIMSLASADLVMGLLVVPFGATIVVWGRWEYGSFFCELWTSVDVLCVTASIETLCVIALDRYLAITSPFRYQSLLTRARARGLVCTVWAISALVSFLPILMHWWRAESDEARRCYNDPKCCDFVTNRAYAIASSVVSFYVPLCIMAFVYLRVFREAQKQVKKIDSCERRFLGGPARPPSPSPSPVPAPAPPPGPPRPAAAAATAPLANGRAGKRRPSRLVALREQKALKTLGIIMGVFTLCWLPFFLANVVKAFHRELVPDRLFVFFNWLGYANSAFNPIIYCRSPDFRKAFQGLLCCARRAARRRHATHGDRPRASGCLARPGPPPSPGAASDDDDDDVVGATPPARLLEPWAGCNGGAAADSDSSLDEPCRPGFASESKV
Description: Displacement of [125]I-cyanopindolol from recombinant human beta1 adrenergic receptor after 1 hr by scintillation counting method

[6] = target: T1, Beta-3 adrenergic receptor; assay: Agonist activity at human beta3 adrenergic receptor expressed in CHO cells assessed as accumulation of cAMP after 30 mins by TR-FRET assay relative to (R)-(-)-isoproterenol; assay type: functional, cell-based
Target sequence in this assay (P13945 whole entry, looked up): as the sequence (P13945 whole entry) above

[7] = target: Sodium-dependent serotonin transporter (Homo sapiens, UniProt P31645); assay: Inhibition of human SERT expressed in HEK293 cells preincubated for 30 mins followed by fluorescent substrate addition measured after 30 mins by plate reader analysis; assay type: cell-based
Sodium-dependent serotonin transporter, sequence (P31645 whole entry): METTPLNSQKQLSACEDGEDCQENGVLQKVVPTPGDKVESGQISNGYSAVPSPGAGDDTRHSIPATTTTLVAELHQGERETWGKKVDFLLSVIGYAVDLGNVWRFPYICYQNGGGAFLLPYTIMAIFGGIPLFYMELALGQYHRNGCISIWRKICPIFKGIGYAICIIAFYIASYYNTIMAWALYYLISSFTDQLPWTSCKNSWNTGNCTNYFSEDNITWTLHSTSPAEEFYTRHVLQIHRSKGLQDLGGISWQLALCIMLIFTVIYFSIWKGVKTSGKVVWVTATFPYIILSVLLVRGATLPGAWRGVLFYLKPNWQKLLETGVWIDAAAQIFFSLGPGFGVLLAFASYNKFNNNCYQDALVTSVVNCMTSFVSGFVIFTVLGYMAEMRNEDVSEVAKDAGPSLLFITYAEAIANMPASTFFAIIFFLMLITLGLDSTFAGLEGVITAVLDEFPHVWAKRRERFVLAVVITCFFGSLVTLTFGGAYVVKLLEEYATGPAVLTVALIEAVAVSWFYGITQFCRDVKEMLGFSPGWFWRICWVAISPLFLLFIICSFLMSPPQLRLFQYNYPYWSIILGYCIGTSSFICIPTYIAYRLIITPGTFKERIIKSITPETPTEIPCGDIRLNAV

[8] = target: Voltage-dependent L-type calcium channel subunit alpha-1C (Homo sapiens, UniProt Q13936); assay: Displacement of [3H]-diltiazem from human Cav1.2 channel
Voltage-dependent L-type calcium channel subunit alpha-1C, sequence (Q13936 whole entry): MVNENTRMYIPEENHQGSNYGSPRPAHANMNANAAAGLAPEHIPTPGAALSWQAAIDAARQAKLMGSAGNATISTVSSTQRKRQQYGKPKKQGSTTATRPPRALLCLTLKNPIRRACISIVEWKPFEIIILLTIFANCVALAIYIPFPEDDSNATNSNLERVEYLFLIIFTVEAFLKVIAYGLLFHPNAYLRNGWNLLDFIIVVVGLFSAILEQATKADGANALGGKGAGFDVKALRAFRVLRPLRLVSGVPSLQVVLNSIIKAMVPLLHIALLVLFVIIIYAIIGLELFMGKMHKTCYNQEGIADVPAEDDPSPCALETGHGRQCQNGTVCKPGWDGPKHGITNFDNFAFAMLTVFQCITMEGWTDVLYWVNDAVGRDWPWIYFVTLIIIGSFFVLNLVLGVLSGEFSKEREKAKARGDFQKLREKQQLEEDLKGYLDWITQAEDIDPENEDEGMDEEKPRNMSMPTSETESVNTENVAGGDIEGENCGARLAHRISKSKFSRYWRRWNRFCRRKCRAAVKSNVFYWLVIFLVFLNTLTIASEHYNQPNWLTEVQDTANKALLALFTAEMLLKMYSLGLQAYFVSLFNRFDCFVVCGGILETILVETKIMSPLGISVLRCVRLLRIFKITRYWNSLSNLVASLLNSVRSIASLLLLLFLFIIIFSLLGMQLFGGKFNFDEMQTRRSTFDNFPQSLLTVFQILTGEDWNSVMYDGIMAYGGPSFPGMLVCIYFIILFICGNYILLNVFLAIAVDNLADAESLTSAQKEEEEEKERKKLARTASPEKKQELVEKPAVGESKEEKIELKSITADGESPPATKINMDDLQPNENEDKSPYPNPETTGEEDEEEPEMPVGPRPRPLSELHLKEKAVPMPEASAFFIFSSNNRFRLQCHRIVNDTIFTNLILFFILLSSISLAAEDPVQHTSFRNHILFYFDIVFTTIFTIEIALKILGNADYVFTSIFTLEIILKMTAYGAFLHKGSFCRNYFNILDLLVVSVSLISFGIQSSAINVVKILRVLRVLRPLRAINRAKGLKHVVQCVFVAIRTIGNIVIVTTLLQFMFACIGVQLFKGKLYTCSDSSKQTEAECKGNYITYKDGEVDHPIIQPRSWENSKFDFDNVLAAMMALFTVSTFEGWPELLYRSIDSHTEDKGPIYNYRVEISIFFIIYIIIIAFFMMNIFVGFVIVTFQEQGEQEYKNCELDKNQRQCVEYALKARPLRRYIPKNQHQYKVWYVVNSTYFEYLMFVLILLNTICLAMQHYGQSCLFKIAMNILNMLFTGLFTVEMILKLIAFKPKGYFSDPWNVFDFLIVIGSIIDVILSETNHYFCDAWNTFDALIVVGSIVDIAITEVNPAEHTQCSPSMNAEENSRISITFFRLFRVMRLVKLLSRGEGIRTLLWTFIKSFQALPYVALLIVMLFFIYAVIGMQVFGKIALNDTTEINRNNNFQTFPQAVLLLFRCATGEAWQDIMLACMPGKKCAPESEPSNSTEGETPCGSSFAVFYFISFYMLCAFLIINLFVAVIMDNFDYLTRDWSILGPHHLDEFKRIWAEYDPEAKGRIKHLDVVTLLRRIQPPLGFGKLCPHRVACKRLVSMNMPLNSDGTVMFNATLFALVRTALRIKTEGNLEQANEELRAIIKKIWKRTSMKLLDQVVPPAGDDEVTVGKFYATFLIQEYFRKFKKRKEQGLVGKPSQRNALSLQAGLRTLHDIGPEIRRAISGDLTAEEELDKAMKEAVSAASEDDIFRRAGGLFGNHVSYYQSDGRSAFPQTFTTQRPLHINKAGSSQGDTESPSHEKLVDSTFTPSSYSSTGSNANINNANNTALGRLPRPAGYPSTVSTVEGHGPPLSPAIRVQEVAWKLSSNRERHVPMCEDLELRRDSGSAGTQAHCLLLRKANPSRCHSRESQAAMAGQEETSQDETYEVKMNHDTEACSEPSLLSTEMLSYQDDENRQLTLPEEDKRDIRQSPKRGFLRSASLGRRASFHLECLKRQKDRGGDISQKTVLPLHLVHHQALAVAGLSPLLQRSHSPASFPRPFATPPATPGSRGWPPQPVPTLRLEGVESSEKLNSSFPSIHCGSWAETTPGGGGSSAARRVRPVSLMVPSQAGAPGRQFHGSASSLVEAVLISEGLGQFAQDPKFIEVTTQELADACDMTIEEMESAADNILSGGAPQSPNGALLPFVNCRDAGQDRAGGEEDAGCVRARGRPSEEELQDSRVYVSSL

[9] = target: Beta-2 adrenergic receptor (Homo sapiens, UniProt P07550)
Beta-2 adrenergic receptor, sequence (P07550 whole entry): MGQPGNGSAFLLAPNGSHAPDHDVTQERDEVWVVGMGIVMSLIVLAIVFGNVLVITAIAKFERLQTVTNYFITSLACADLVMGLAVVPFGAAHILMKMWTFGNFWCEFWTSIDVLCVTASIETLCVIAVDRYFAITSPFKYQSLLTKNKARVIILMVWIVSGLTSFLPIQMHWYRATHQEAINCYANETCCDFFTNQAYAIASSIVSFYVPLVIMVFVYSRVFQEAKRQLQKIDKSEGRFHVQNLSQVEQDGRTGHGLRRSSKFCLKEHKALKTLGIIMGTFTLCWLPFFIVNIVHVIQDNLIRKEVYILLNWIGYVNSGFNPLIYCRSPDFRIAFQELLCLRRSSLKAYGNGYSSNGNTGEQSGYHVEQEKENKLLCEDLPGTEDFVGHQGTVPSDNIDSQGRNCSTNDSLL
Description: Displacement of [125]I-cyanopindolol from human recombinant beta2 adrenergic receptor after 1 hr by scintillation counting method

[10] = Distribution coefficient, logD of the compound at pH 7.4; assay type: physicochemical; settings: octanol/water
[11] = target: Cytochrome P450 3A4 (Homo sapiens, UniProt P08684); assay: Inhibition of CYP3A4 in human liver microsomes assessed as testosterone 6beta-hydroxylation; assay type: ADME
Cytochrome P450 3A4, sequence (P08684 whole entry): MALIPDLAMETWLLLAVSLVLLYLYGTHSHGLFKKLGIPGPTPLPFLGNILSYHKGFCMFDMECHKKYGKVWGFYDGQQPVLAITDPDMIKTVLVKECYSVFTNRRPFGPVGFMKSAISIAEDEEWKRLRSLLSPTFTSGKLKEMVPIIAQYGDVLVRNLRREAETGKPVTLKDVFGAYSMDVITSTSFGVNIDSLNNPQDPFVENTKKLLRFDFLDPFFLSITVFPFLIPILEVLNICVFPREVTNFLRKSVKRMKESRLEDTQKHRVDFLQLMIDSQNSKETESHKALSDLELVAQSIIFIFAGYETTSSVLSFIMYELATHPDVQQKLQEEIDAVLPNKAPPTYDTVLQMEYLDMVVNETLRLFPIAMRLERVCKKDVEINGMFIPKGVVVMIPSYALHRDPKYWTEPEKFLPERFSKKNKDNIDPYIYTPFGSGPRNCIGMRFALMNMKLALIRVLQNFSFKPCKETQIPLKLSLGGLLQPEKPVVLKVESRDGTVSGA

[12] = target: Cytochrome P450 2D6 (Homo sapiens, UniProt P10635); assay: Inhibition of CYP2D6 in human liver microsomes assessed as dextraomethorphan O-demethylation; assay type: ADME
[13] = target: Cytochrome P450 2C9 (Homo sapiens, UniProt P11712); assay: Inhibition of CYP2C9 in human liver microsomes assessed as diclofenac alpha'-hydroxylation; assay type: ADME
[14] = Oral bioavailability in rhesus monkey at 2 mg/kg; assay type: ADME, organism-based, Macaca mulatta; settings: in vivo
[15] = Plasma clearance in dog at 0.5 mg/kg, iv or 2 mg/kg, po; assay type: ADME, organism-based, Canis lupus familiaris
[16] = Fraction unbound in rhesus monkey at 0.5 mg/kg, iv or 2 mg/kg, po; assay type: ADME, organism-based, Macaca mulatta; settings: in vivo
[17] = Half life in rat at 1 mg/kg, iv or 2 mg/kg, po; assay type: ADME, organism-based; settings: in vivo
[18] = test system: Rattus norvegicus; assay: Unbound clearance in rat at 1 mg/kg, iv or 2 mg/kg, po; assay type: ADME, organism-based; settings: in vivo
[19] = test system: Canis familiaris; assay: Unbound clearance in dog at 0.5 mg/kg, iv or 2 mg/kg, po; assay type: ADME, organism-based, Canis lupus familiaris; settings: in vivo
[20] = test system: Rattus norvegicus; assay: Dose normalized fAUC in rat at 2 mg/kg, po; assay type: ADME, organism-based; settings: in vivo
[21] = test system: Rattus norvegicus; assay: Dose normalized total AUC in rat at 2 mg/kg, po; assay type: ADME, organism-based; settings: in vivo
[22] = target: T1, Beta-3 adrenergic receptor; assay: Agonist activity at human adrenergic beta3 receptor expressed in CHO cells assessed as accumulation of cAMP after 30 mins by TR-FRET assay in presence of 40% serum relative to (R)-(-)-isoproterenol; assay type: functional, cell-based
Target sequence in this assay (P13945 whole entry, looked up): as the sequence (P13945 whole entry) above

[23] = Intrinsic clearance in human liver microsomes; assay type: ADME; settings: read-out: CLH
[24] = test system: Canis familiaris; assay: Dose normalized fAUC in dog at 2 mg/kg, po; assay type: ADME, organism-based, Canis lupus familiaris; settings: in vivo
[25] = target: Beta-3 adrenergic receptor (Rattus norvegicus) (UniProt P26255); assay: Agonist activity at rat beta3 adrenergic receptor expressed in CHO cells assessed as accumulation of cAMP after 30 mins by TR-FRET assay relative to (R)-(-)-isoproterenol; assay type: functional, cell-based
[26] = Fraction unbound in rat at 1 mg/kg, iv or 2 mg/kg, po; assay type: ADME, organism-based; settings: in vivo
[27] = Stability in human plasma assessed as parent compound remaining at 24 hrs by LC-MS analysis; assay type: ADME, cell-free; settings: read-out: Stability
[28] = target: T2, Beta-3 adrenergic receptor (Rattus norvegicus, UniProt P26255); assay: Agonist activity at rat beta3 adrenergic receptor expressed in CHO cells assessed as accumulation of cAMP after 30 mins by TR-FRET assay in presence of 40% serum; assay type: functional, cell-based
[29] = Half life in dog at 0.5 mg/kg, iv or 2 mg/kg, po; assay type: ADME, organism-based, Canis lupus familiaris; settings: in vivo
[30] = Plasma clearance in rhesus monkey at 0.5 mg/kg, iv or 2 mg/kg, po; assay type: ADME, organism-based, Macaca mulatta
[31] = target: Beta-3 adrenergic receptor (Macaca mulatta, UniProt Q28524); assay: Agonist activity at rhesus monkey beta3 adrenergic receptor expressed in CHO cells assessed as accumulation of cAMP after 30 mins by TR-FRET assay; assay type: functional, cell-based
[32] = Intrinsic clearance in dog liver microsomes; assay type: ADME, Canis lupus familiaris; settings: read-out: CLH
[33] = Fraction unbound in dog at 0.5 mg/kg, iv or 2 mg/kg, po; assay type: ADME, organism-based, Canis lupus familiaris; settings: in vivo
[34] = test system: Rattus norvegicus; assay: Increase in detrusor muscle relaxation in iv infused Sprague-Dawley rat acetic acid-induced bladder hyperreflexia model assessed as decrease in micturition pressure measured over 30 to 45 mins; assay type: functional, organism-based
[35] = test system: Canis familiaris; assay: Dose normalized total AUC in dog at 2 mg/kg, po; assay type: ADME, organism-based, Canis lupus familiaris; settings: in vivo
[36] = Stability in dog plasma assessed as parent compound remaining at 24 hrs by LC-MS analysis; assay type: ADME, cell-free, Canis lupus familiaris; settings: read-out: Stability
[37] = Intrinsic clearance in rat liver microsomes; assay type: ADME; settings: read-out: CLH
[38] = test system: Rattus norvegicus; assay: Increase in detrusor muscle relaxation in iv infused Sprague-Dawley rat acetic acid-induced bladder hyperreflexia model assessed as increase in functional bladder capacity measured over 30 to 45 mins; assay type: organism-based
[39] = Intrinsic clearance in rhesus monkey liver microsomes; assay type: ADME, Macaca mulatta; settings: read-out: CLH
[40] = target: Beta-3 adrenergic receptor (Canis lupus familiaris, UniProt O02662); assay: Agonist activity at dog beta3 adrenergic receptor expressed in CHO cells assessed as accumulation of cAMP after 30 mins by TR-FRET assay; assay type: functional, cell-based
[41] = Stability in rhesus monkey plasma assessed as parent compound remaining at 24 hrs by LC-MS analysis; assay type: ADME, cell-free, Macaca mulatta; settings: read-out: Stability
[42] = target: T1, Beta-3 adrenergic receptor; assay: Agonist activity at human adrenergic beta3 receptor expressed in CHO cells assessed as accumulation of cAMP after 30 mins by TR-FRET assay in presence of 40% serum; assay type: functional, cell-based
Target sequence in this assay (P13945 whole entry): as above

[43] = Oral bioavailability in rat at 2 mg/kg; assay type: ADME, organism-based; settings: in vivo
[44] = test system: Rhesus monkey; assay: Dose normalized total AUC in rhesus monkey at 2 mg/kg, po; assay type: ADME, organism-based, Macaca mulatta; settings: in vivo
[45] = Oral bioavailability in dog at 2 mg/kg; assay type: ADME, organism-based, Canis lupus familiaris; settings: in vivo
[46] = Stability in rat plasma assessed as parent compound remaining at 24 hrs by LC-MS analysis; assay type: ADME, cell-free; settings: read-out: Stability
[47] = target: T2, Beta-3 adrenergic receptor; assay: Agonist activity at rat beta3 adrenergic receptor expressed in CHO cells assessed as accumulation of cAMP after 30 mins by TR-FRET assay; assay type: functional, cell-based
[48] = Plasma clearance in rat at 1 mg/kg, iv or 2 mg/kg, po; assay type: ADME, organism-based
[49] = target: Beta-3 adrenergic receptor (Macaca mulatta) (UniProt Q28524); assay: Agonist activity at rhesus monkey beta3 adrenergic receptor expressed in CHO cells assessed as accumulation of cAMP after 30 mins by TR-FRET assay relative to (R)-(-)-isoproterenol; assay type: functional, cell-based
[50] = test system: Rhesus monkey; assay: Dose normalized fAUC in rhesus monkey at 2 mg/kg, po; assay type: ADME, organism-based, Macaca mulatta; settings: in vivo
[51] = target: Beta-3 adrenergic receptor (Rattus norvegicus) (UniProt P26255); assay: Agonist activity at rat beta3 adrenergic receptor expressed in CHO cells assessed as accumulation of cAMP after 30 mins by TR-FRET assay in presence of 40% serum relative to (R)-(-)-isoproterenol; assay type: functional, cell-based
[52] = Half life in rhesus monkey at 0.5 mg/kg, iv or 2 mg/kg, po; assay type: ADME, organism-based, Macaca mulatta; settings: in vivo
[53] = test system: Rhesus monkey; assay: Unbound clearance in rhesus monkey at 0.5 mg/kg, iv or 2 mg/kg, po; assay type: ADME, organism-based, Macaca mulatta; settings: in vivo

SMILES: O=C(Cn1ncccc1=O)Nc1ccc(C[C@@H]2CC[C@H]([C@H](O)c3ccccc3)N2)cc1
bioavailability [14]: 46% | clearance [15]: 7.4 mL/min/kg | fraction unbound [16]: 0.63 | half-life [17]: 5 h | CL free [18]: 148 mL/min/kg | EC50 [1]: 0.0048 µM | CL free [19]: 15 mL/min/kg | fAUC/dose [20]: 17 nM·h/mg/kg | AUC/dose [21]: 66 nM·h/mg/kg | max activation [22]: 96% | CLint scaled [23]: < 10 mL/min/kg | fAUC/dose [24]: 612 nM·h/mg/kg | max activation [25]: 79% | fraction unbound [26]: 0.27 | logD [10]: 1 | remaining at 24 h [27]: 26% | EC50 [28]: 1.06 µM | half-life [29]: 8 h | clearance [30]: 21 mL/min/kg | EC50 [31]: 0.0035 µM | IC50 [11]: > 100 µM | CLint scaled [32]: 11 mL/min/kg | AC50 [3]: 67 µM | fraction unbound [33]: 0.51 | IC50 [12]: > 100 µM | Activity [34]: Dose-dependent effect | AUC/dose [35]: 1200 nM·h/mg/kg | remaining at 24 h [36]: 100% | CLint scaled [37]: < 15 mL/min/kg | Activity [38]: Dose-dependent effect | IC50 [4]: > 30 µM | IC50 [5]: > 20 µM | CLint scaled [39]: < 10 mL/min/kg | EC50 [40]: 0.047 µM | remaining at 24 h [41]: 95% | max activation [6]: 105% | EC50 [42]: 0.0059 µM | IC50 [7]: 4.4 µM | bioavailability [43]: 14% | AUC/dose [44]: 820 nM·h/mg/kg | bioavailability [45]: 18% | IC50 [13]: > 100 µM | remaining at 24 h [46]: 95% | EC50 [47]: 0.615 µM | clearance [48]: 40 mL/min/kg | max activation [49]: 91% | fAUC/dose [50]: 517 nM·h/mg/kg | IC50 [8]: > 30 µM | max activation [51]: 99% | half-life [52]: 9 h | CL free [53]: 33 mL/min/kg | IC50 [9]: > 20 µM

SMILES: O=C(Nc1ccc(C[C@@H]2CC[C@H]([C@H](O)c3cccnc3)N2)cc1)[C@@H]1CCc2ccnn21
logD [10]: 0.9 | remaining at 24 h [27]: 0% | AC50 [3]: 94 µM | remaining at 24 h [36]: 100% | remaining at 24 h [41]: 87% | max activation [6]: 84% | remaining at 24 h [46]: 97%

Further lines, with some results ahead:

EC50 [1]: 0.0039 µM | AC50 [3]: > 100 µM | IC50 [4]: > 30 µM | IC50 [5]: > 20 µM | max activation [6]: 91% | IC50 [7]: 0.7 µM | IC50 [9]: > 20 µM
SMILES: O=C(Cn1cnccc1=O)Nc1ccc(C[C@@H]2CC[C@H]([C@H](O)c3ccccc3)N2)cc1
IC50 [2]: > 30 µM | IC50 [8]: > 30 µM

EC50 [1]: 0.0043 µM | AC50 [3]: > 100 µM | IC50 [4]: > 30 µM | IC50 [5]: > 20 µM | max activation [6]: 97% | IC50 [7]: 1.1 µM | IC50 [9]: > 20 µM
SMILES: O=C(Cn1ccccc1=O)Nc1ccc(C[C@@H]2CC[C@H]([C@H](O)c3ccccc3)N2)cc1
IC50 [2]: > 30 µM | IC50 [8]: > 30 µM

EC50 [1]: 0.0017 µM | logD [10]: 2 | IC50 [11]: 96 µM | AC50 [3]: 8.6 µM | IC50 [12]: 31 µM | IC50 [4]: > 30 µM | IC50 [5]: > 20 µM | max activation [6]: 108% | IC50 [7]: 0.2 µM | IC50 [13]: > 100 µM | IC50 [9]: 2.2 µM
SMILES: O=C(Cn1cnc2ccccc2c1=O)Nc1ccc(C[C@@H]2CC[C@H]([C@H](O)c3ccccc3)N2)cc1
IC50 [8]: 13 µM
